In ChEMBL document CHEMBL1201862, “PubChem BioAssay data set” (2004):
Activity calls are given as the source filed them.

Columns and labels:
Assay type in all cases: functional
[1] = target: Protein kinase C theta type (Homo sapiens, UniProt Q04759); assay: Navigating the Kinome. Panel member name: PRKCQ
[2] = target: Dual specificity protein kinase CLK2 (Homo sapiens, UniProt P49760)
[3] = target: Dual specificity mitogen-activated protein kinase kinase 1 (Homo sapiens, UniProt Q02750); assay: Navigating the Kinome. Panel member name: MAP2K1
Sequence of Dual specificity mitogen-activated protein kinase kinase 1 (Q02750 whole entry): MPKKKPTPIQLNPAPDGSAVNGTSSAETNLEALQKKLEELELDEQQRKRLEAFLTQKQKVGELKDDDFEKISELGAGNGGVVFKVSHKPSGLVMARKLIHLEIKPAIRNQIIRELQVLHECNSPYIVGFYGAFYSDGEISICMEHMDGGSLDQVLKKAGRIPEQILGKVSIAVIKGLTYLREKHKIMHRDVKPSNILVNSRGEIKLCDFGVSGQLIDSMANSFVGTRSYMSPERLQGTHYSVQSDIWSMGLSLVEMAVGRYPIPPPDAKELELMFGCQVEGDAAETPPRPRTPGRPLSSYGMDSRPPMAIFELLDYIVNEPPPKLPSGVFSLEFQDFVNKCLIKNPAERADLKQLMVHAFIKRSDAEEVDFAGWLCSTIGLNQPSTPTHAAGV

[4] = target: Tyrosine-protein kinase JAK2 (Homo sapiens, UniProt O60674);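 also: JAK2 tested as one member of a kinase panel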
Sequence of Tyrosine-protein kinase JAK2 (O60674 whole entry): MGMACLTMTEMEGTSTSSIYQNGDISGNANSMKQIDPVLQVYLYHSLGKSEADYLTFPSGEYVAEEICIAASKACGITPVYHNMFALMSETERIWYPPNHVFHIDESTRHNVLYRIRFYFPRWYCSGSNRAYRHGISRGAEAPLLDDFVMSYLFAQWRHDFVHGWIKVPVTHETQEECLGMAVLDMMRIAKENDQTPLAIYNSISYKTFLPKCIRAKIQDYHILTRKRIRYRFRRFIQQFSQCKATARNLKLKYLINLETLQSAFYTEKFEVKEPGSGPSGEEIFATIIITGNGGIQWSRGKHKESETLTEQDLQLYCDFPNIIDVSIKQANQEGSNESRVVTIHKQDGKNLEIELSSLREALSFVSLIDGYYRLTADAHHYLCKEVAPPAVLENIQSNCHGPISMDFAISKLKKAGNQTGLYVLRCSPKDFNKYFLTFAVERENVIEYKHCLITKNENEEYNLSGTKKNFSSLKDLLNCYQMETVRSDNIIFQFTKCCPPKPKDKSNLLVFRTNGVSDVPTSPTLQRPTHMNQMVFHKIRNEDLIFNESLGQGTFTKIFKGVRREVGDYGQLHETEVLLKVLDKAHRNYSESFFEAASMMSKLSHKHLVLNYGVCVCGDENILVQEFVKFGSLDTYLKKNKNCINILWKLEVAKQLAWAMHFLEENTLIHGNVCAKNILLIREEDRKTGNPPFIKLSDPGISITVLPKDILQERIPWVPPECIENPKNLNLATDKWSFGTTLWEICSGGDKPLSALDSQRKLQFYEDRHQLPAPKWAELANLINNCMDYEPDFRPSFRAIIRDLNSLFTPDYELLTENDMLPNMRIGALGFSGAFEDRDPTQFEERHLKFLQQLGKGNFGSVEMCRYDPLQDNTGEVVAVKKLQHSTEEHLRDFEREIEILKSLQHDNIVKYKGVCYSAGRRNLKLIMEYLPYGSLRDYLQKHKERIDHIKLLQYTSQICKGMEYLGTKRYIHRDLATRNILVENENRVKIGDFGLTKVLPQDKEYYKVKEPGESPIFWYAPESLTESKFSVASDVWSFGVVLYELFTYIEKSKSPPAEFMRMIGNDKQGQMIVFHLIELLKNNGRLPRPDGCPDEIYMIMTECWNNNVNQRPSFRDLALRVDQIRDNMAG

[5] = target: 5'-AMP-activated protein kinase catalytic subunit alpha-1 (Homo sapiens, UniProt Q13131)
[6] = target: T1, Serine/threonine-protein kinase D3 (Homo sapiens, UniProt O94806);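 also: determined within a kinase panel screen, with PRKCN as the panel member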
T1 sequence (O94806 whole entry): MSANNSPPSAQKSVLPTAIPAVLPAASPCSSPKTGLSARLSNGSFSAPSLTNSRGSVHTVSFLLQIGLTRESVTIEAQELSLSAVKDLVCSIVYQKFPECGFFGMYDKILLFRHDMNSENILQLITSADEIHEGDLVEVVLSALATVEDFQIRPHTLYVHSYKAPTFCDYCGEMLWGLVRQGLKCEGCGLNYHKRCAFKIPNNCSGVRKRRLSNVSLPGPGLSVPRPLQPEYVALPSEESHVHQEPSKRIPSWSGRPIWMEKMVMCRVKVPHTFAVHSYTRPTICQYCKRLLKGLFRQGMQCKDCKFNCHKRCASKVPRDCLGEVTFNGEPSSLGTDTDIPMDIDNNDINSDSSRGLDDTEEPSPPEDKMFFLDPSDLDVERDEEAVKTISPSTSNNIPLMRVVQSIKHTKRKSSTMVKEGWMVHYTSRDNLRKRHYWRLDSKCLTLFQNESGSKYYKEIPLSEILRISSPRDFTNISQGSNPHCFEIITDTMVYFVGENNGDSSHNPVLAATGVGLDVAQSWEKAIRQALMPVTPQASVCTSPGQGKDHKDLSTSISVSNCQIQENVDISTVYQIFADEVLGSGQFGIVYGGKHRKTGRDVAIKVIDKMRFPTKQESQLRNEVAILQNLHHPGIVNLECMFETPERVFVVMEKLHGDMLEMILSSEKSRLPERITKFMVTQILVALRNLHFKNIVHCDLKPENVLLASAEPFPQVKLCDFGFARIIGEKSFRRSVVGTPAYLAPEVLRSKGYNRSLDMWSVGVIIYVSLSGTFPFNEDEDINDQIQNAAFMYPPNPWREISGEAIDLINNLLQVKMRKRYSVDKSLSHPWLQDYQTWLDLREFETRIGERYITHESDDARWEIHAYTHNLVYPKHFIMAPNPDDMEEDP

[7] = target: Mitogen-activated protein kinase 8 (Homo sapiens, UniProt P45983);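 also: value comes from one member of a kinome-wide kinase profiling panel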
[8] = target: Serine/threonine-protein kinase pim-1 (Homo sapiens, UniProt P11309)
[9] = target: Tyrosine-protein kinase BTK (Homo sapiens, UniProt Q06187)
Sequence of Tyrosine-protein kinase BTK (Q06187 whole entry): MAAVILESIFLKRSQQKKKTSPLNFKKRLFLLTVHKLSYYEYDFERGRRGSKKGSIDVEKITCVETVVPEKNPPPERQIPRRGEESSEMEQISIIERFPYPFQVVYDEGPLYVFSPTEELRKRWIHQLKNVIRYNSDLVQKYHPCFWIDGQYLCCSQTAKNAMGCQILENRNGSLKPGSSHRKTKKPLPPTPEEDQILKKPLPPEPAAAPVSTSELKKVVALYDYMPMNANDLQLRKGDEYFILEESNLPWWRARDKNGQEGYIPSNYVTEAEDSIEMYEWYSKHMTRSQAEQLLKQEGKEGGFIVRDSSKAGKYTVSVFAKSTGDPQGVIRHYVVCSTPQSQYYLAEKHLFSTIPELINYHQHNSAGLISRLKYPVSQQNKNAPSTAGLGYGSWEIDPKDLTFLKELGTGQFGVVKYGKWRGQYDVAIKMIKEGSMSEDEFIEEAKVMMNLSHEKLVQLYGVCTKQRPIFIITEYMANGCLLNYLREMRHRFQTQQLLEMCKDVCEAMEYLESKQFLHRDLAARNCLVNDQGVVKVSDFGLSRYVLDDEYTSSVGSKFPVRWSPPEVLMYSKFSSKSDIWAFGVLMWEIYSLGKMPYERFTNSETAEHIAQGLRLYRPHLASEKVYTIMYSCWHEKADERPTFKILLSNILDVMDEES

[10] = target: Serine/threonine-protein kinase PAK 4 (Homo sapiens, UniProt O96013);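 also: value obtained within a kinome profiling panel in which PAK4 was one of the panel members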
[11] = target: Fibroblast growth factor receptor 1 (Homo sapiens, UniProt P11362)
[12] = target: Casein kinase I isoform alpha (Homo sapiens, UniProt P48729)
[13] = target: Tyrosine-protein kinase JAK3 (Homo sapiens, UniProt P52333)
[14] = target: Serine/threonine-protein kinase TAO1 (Homo sapiens, UniProt Q7L7X3)
Sequence of Serine/threonine-protein kinase TAO1 (Q7L7X3 whole entry): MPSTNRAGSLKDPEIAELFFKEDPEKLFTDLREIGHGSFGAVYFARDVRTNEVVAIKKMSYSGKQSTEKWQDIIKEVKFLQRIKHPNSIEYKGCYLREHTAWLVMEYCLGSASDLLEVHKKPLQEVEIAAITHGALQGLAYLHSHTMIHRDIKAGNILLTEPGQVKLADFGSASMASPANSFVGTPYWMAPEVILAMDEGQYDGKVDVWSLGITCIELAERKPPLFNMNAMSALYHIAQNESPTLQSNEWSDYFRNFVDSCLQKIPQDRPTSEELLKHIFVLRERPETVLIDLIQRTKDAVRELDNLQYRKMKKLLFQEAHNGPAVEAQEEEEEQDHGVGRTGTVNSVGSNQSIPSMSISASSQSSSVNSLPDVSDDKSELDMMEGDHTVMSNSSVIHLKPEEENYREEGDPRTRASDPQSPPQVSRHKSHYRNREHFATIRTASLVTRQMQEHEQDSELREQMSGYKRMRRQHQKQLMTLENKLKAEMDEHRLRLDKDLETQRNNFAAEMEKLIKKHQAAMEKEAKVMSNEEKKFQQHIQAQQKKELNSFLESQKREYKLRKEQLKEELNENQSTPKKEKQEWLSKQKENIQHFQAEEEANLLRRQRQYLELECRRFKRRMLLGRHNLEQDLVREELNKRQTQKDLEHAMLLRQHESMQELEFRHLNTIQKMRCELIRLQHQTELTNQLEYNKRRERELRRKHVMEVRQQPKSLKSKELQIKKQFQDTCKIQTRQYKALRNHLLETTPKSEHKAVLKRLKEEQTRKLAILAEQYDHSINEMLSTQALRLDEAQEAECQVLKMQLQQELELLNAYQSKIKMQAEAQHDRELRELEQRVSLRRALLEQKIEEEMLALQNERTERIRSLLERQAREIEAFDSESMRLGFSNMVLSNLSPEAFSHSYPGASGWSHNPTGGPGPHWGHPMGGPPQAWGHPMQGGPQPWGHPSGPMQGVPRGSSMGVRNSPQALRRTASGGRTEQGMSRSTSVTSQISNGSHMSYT

[15] = target: High affinity nerve growth factor receptor (Homo sapiens, UniProt P04629);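 also: NTRK1 tested as one member of a kinome-wide profiling panel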
[16] = target: Glycogen synthase kinase-3 alpha (Homo sapiens, UniProt P49840);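 also: GSK3A result taken from a broad kinome-wide kinase panel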
Activated CDC42 kinase 1 = Activated CDC42 kinase 1 (Homo sapiens, UniProt Q07912); assay: Navigating the Kinome. Panel member name: ACK1
[17] = target: Receptor-type tyrosine-protein kinase FLT3 (Homo sapiens, UniProt P36888);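 also: FLT3 was tested as one member of a kinome-wide kinase panel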
Sequence of Receptor-type tyrosine-protein kinase FLT3 (P36888 whole entry): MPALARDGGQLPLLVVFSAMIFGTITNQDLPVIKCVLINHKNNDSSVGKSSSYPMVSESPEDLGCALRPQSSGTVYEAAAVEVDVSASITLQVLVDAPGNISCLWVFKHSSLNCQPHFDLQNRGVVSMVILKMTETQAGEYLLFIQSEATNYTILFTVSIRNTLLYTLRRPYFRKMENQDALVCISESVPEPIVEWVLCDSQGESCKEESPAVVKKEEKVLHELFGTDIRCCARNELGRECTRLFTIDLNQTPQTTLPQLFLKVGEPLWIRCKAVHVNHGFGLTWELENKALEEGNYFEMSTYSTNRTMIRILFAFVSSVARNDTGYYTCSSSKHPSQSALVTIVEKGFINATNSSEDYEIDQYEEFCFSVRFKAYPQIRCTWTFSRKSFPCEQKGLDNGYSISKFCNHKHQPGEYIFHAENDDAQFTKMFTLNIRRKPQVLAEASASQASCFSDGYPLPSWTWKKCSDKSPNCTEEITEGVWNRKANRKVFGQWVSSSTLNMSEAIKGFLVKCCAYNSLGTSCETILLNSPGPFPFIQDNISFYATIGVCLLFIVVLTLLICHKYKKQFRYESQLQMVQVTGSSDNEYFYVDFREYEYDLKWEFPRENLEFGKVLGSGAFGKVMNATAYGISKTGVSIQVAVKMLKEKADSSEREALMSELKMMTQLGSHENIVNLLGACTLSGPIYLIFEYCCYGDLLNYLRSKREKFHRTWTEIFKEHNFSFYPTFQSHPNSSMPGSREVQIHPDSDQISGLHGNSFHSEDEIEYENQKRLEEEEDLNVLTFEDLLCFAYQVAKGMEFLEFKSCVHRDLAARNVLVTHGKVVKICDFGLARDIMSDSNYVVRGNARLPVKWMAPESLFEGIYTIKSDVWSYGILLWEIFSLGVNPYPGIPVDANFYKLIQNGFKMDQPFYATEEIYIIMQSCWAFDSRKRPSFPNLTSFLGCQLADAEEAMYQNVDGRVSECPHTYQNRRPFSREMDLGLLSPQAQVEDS

[18] = target: Vascular endothelial growth factor receptor 2 (Homo sapiens, UniProt P35968)
[19] = target: G protein-coupled receptor kinase 5 (Homo sapiens, UniProt P34947); assay: Navigating the Kinome. Panel member name: GPRK5
[20] = target: Cyclin-dependent kinase 5 (Homo sapiens, UniProt Q00535);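 also: CDK5 measured as one member of a kinase profiling panel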
[21] = target: Insulin-like growth factor 1 receptor (Homo sapiens, UniProt P08069); assay: Navigating the Kinome. Panel member name: IGF1R
[22] = target: cAMP-dependent protein kinase catalytic subunit PRKX (Homo sapiens, UniProt P51817)
Sequence of cAMP-dependent protein kinase catalytic subunit PRKX (P51817 whole entry): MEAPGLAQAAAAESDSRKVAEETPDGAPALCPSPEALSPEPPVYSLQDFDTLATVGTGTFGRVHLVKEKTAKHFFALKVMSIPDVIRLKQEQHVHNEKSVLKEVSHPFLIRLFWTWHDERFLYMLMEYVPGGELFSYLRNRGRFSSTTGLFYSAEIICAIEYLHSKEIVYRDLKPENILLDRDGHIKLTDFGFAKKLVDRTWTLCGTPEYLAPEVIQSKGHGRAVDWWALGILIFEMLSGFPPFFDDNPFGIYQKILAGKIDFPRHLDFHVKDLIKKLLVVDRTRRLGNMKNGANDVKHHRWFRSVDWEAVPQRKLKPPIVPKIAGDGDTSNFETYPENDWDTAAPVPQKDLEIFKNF

[23] = target: Platelet-derived growth factor receptor alpha (Homo sapiens, UniProt P16234); assay: Navigating the Kinome. Panel member name: PDGFRA
[24] = target: Rho-associated protein kinase 1 (Homo sapiens, UniProt Q13464);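 also: measured within a broad kinome-wide panel profiling many kinases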
[25] = target: Cyclin-dependent kinase 8 (Homo sapiens, UniProt P49336); assay: Navigating the Kinome. Panel member name: CDK8
[26] = target: Cyclin-dependent kinase 7 (Homo sapiens, UniProt P50613);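 also: value comes from a kinome-wide kinase profiling panel in which CDK7 is one member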
[27] = target: Glycogen synthase kinase-3 beta (Homo sapiens, UniProt P49841);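 also: value comes from a broad kinome profiling panel, with GSK3B as the panel member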
Sequence of Glycogen synthase kinase-3 beta (P49841 whole entry): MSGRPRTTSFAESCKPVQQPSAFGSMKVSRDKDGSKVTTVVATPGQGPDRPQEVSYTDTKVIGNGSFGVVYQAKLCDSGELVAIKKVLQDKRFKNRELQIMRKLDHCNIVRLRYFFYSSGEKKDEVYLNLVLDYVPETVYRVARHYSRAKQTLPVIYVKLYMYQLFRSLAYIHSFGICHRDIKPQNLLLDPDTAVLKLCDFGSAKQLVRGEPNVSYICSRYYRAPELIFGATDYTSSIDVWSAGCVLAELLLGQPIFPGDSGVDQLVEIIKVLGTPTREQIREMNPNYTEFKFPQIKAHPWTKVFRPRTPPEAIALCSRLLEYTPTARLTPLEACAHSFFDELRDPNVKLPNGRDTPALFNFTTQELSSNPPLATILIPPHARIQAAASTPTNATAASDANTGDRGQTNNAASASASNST

[28] = target: Dual specificity protein kinase CLK4 (Homo sapiens, UniProt Q9HAZ1)
[29] = target: Mitogen-activated protein kinase kinase kinase kinase 4 (Homo sapiens, UniProt O95819)
[30] = target: Macrophage-stimulating protein receptor (Homo sapiens, UniProt Q04912); assay: Navigating the Kinome. Panel member name: MST1R
[31] = target: Dual specificity mitogen-activated protein kinase kinase 2 (Homo sapiens, UniProt P36507); assay: Navigating the Kinome. Panel member name: MAP2K2
[32] = target: Dual specificity tyrosine-phosphorylation-regulated kinase 1A (Homo sapiens, UniProt Q13627);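 also: measured against DYRK1A as one member of a broad kinome profiling panel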
[33] = target: Calcium/calmodulin-dependent protein kinase type II subunit alpha (Homo sapiens, UniProt Q9UQM7); assay: Navigating the Kinome. Panel member name: CAMK2A
[34] = target: Leukocyte tyrosine kinase receptor (Homo sapiens, UniProt P29376); assay: Navigating the Kinome. Panel member name: LTK

Structure (SMILES)	Ki [1]	Ki [2]	Ki [3]	Ki [4]	Ki [5]	Ki [6]	Ki [7]	Ki [8]	Ki [9]	Ki [10]	Ki [11]	Ki [12]	Ki [13]	Ki [14]	Ki [15]	Ki [16]	Ki (Activated CDC42 kinase 1)	Ki [17]	Ki [18]	Ki [19]	further results
CCCOc1cccc(C(C)NC(=O)c2ccc(-c3ccncc3F)cc2)c1 (stereo not given)	2 µM (active)	> 3.98 µM (inactive)	> 3.16 µM (inactive)	> 2.51 µM (inactive)	> 3.16 µM (inactive)	> 3.98 µM (inactive)	> 5.01 µM (inactive)	> 6.31 µM (inactive)	> 6.31 µM (inactive)	> 5.01 µM (inactive)	> 3.98 µM (inactive)	> 3.98 µM (inactive)	> 5.01 µM (inactive)	> 6.31 µM (inactive)	> 3.16 µM (inactive)	3.16 µM (active)	> 3.98 µM (inactive)	> 3.16 µM (inactive)	> 2.51 µM (inactive)	> 3.98 µM (inactive)	Ki [20]: > 3.16 µM (inactive); Ki [21]: > 2.51 µM (inactive); Ki [22]: 501 nM (active); Ki [23]: > 2.51 µM (inactive); Ki [24]: 0.794 nM (active); Ki [25]: > 3.98 µM (inactive); Ki [26]: > 3.98 µM (inactive); Ki [27]: 2.51 µM (active); Ki [28]: 100 nM (active); Ki [29]: > 5.01 µM (inactive); Ki [30]: > 3.98 µM (inactive); Ki [31]: > 3.98 µM (inactive); Ki [32]: > 2 µM (inactive); Ki [33]: > 7.94 µM (inactive); Ki [34]: > 2.51 µM (inactive)
COc1cccc(C(C)NC(=O)c2cnc(-c3ccncc3)nc2)c1 (stereo not given)	0.631 µM (active)	> 3.98 µM (inactive)	> 3.16 µM (inactive)	> 2.51 µM (inactive)	> 3.16 µM (inactive)	> 3.98 µM (inactive)	> 5.01 µM (inactive)	> 6.31 µM (inactive)	> 6.31 µM (inactive)	> 5.01 µM (inactive)	> 3.98 µM (inactive)	> 3.98 µM (inactive)	> 5.01 µM (inactive)	> 6.31 µM (inactive)	> 3.16 µM (inactive)	2.51 µM (active)	> 3.98 µM (inactive)	> 3.16 µM (inactive)	> 2.51 µM (inactive)	> 3.98 µM (inactive)	Ki [20]: > 3.16 µM (inactive); Ki [21]: > 2.51 µM (inactive); Ki [22]: 1260 nM (active); Ki [23]: > 2.51 µM (inactive); Ki [24]: 3.98 nM (active); Ki [25]: > 3.98 µM (inactive); Ki [26]: > 3.98 µM (inactive); Ki [27]: 1.58 µM (active); Ki [28]: > 2510 nM (inactive); Ki [29]: > 5.01 µM (inactive); Ki [30]: 0.398 µM (active); Ki [31]: > 3.98 µM (inactive); Ki [32]: > 2 µM (inactive); Ki [33]: > 7.94 µM (inactive); Ki [34]: > 2.51 µM (inactive)
